The text below walks through data of paper PMC4944145, “New paradigms for understanding and step changes in treating active and chronic, persistent apicomplexan infections” (Scientific Reports, 2016).

Series [1] deals with P. falciparum Dd2 parasite lines. In words: P. falciparum whole-cell SYBR Green EC50, Dd2 and cytochrome b mutant / scDHODH lines. It is filed as cell-based. As to conditions: Plasmodium falciparum. The procedure:
We used the following parasite line from the MR4 repository of the American Type Culture Collection (ATCC): Dd2 (MRA-156). Mutant Dd2 parasites harboring a G33A or G33V substitution in cytochrome b were as reported^S77. Dd2 parasites with a G131S mutation in cytochrome b and transgenic lines expressing a chromosomally integrated copy of the S. cerevisiae DHODH were utilized as previously described^S78. Parasites were cultured by standard methods in RPMI media supplemented with 5% human O^+ serum and 0.25% AlbuMAX® II (Life Technologies 11021–045)^S79.
Drug susceptibility was measured using the SYBR Green method^S75. Twelve point curves based on 2-fold dilutions of the test compound were carried out in triplicate each day and replicated on at least three different days. EC50 values were calculated using a nonlinear regression curve fit in Prism 6.0 for Mac (GraphPad Software, Inc.).

In series [2] the test system is P. falciparum Dd2 parasites. In words: Isobologram, modified fixed ratio drug combinations. Type of series: cell-based, Plasmodium falciparum. Conditions: for interaction in combination with MJM170: Dd2 parasites, synergy combined FIC < 1.0, additivity FIC = 1.0, antagonism FIC > 1.0; for FIC ATV: MJM170 + ATV; for FIC CYG: MJM170 + CYG. The method, then: Isobologram experiments were performed in similar fashion utilizing the modified fixed ratio methodology^S76. […] EC50 values were calculated as above, and FICs were calculated for each drug combination as described^S76. Synergy was defined as an FIC < 1.0, additivity as FIC = 1.0, and antagonism as FIC > 1.0.

In series [3] the test system is T. gondii cysts. Conditions: cited from earlier work.
The nature of series [4]: Human microsomal stability.
Series [5] relates to S. cerevisiae wild type parental AD1-9 strain. Briefly: S. cerevisiae growth inhibition (disk), wild type. It is filed as cell-based, Saccharomyces cerevisiae. Conditions: glycerol medium, 1mM, 100, 5 and 1 μM. The method, then: Three S. cerevisiae strains were used: M221Q and M221F cytochrome b mutants and wild type. They share the same nuclear genetic background deriving from AD1–9 (kindly given by M.Ghislain, UCL, Belgium). AD1–9 harbors multiple deletions in the ABC transporter genes that render the strain more sensitive to drugs than standard yeast strains^S65.
Protocol from^S68: Yeast strains were grown over 48 hours at 33 °C in liquid YPG medium [1% yeast extract, 2%(wt/vol) peptone, and 3%(vol/vol) (glycerol). Cultures were diluted to an OD600 of 0.05 and grown for 2 hrs. Cultures were then combined with YPG containing 6% melted agar for a total volume of 15–20 mL and poured onto OmniTray single-well rectangular plates that measured 86 mm by 128 mm (ThermoScientific) . Filter paper disks (7 mm diameter, […]) were placed onto the cooled agar plates. […] A single disk with DMSO on each plate was used as a control. Plates were incubated at 33 °C. Images were obtained after 4 days using GelDoc XR Imaging System (BioRad) and Quantity One software. Drug effect was assessed by the presence and size of a zone of inhibition around the disks.

Series [6] in a line: FaSSIF solubility pH 6.5.
Series [7] can be described thus: HFF toxicity assay (WST-1). It is filed as cell-based. As to conditions: human, HFF cells (confluent monolayer). The method, then:
Toxicity assays were conducted using WST-1 cell proliferation reagent (Roche) as described^S12–15;S18,19. HFF were grown on a flat, clear-bottomed, black 96-well plate. Confluent HFF were treated with inhibitory compounds at concentrations equal to those being tested in challenge assays. Compounds were diluted in IMDM-C, and 20 μl were added to each designated well, with triplicates for each condition. A gradient of 2 fold-decreasing concentrations of DMSO in clear IMDM-C was used as a control. The plate was incubated for 72 hours at 37 °C. 10 μl of WST-1 reagent (Roche) were added to each well and the cells were incubated for 30 to 60 minutes. Absorbance was read using a fluorometer at 420 nm. A higher degree of color change (and absorbance) indicated mitochondrial activity and cell viability.
For orientation: Tetrazolium dyes change colour on reduction, which living cells bring about.

Series [8] concerns T. gondii tachyzoites (RH-YFP strain). In words: T. gondii tachyzoite assay (RH-YFP in HFF, fluorescence). Conditions: Toxoplasma gondii. Type of series: cell-based. The method, then: (§1) Vivo-PMO (Vivo porter linked to morpholinos) to knock down cytochrome b and an off-target PPMO (Vivo porter) were utilized at concentrations of 5 and 10 μM as previously described with both cultures of RH-YFP tachyzoites and EGS^S14. Morpholino sequence for cytochrome b/c knockdown is 5′ […] 3′, and for unrelated sequence, off target, is 5′ […]-[…] 3′.
Human foreskin fibroblasts (HFF) were cultured on a flat, clear-bottomed, black 96-well plate to 90% to 100% confluence. IMDM (1x, [+] glutamine, [+] 25 mM HEPES, [+] Phenol red, 10% FBS [gibco, Denmark]) was removed from each well and replaced with IMDM-C(1x, [+] glutamine, [+] 25 mM HEPES, [−] Phenol red, 10% FBS)[Gibco, Denmark]). Type I RH parasites expressing Yellow Fluorescent Protein (RH-YFP) were lysed from host cells by double passage through a 27-gauge needle. Parasites were counted and diluted to 32,000/mL in IMDM-C. Fibroblast cultures were infected with 3200 tachyzoites of the Type I RH-YFP strain and returned to incubator at 37 °C for 1–2 hours to allow for infection ^S12–15;S18,19;S25. […] The plates were read using a fluorimeter (Synergy H4 Hybrid Reader, BioTek) To ascertain the amount of yellow fluorescent protein, in relative fluorescence units (RFU), as a measure of parasite burden after treatment. […] Data was collected using Gen5 software and analyzed with Excel.

Series [9] deals with P. falciparum. Briefly: P. falciparum in vitro assay (D6, TM91C235, W2, C2B strains). It is filed as cell-based. As to conditions: Plasmodium falciparum. The procedure: D6 is a drug sensitive strain from Sierra Leone, C235 is a multi-drug resistant strain from Thailand, W2 is a chloroquine resistant strain from Thailand, and C2B has resistance to a variety of drugs including atovaquone. These assays were performed as described^S74.

Series [10] is described as follows: Mouse microsomal stability.
The test system of series [11] is T. gondii bradyzoites (EGS strain). In words: EGS strain bradyzoite (cyst) assay in HFF. Type of series: cell-based, Toxoplasma gondii. The procedure: as §1
HFF cells were grown in IMDM (1x, [+] glutamine, [+] 25 mM HEPES, [+] Phenol red, 10% FBS, [Gibco, Denmark]) on removable, sterile glass disks in the bottom of a clear, flat-bottomed 24-well plate. Cultures were infected with 3 × 10^4 parasites (EGS strain) per well, in 0.5 mL media and plate was returned to incubator at 37 °C overnight. The following day, the media was removed and clear IMDM and compounds were added to making various concentrations of the drug, to a total volume of 0.5 mL. Two wells were filled with media only, as a control. Plates were returned to the 37 °C incubator for 72 hours.
Efficacy was determined following fixation. Staining was used to determine the numbers of cysts in cultures without and with treatment with the test compounds. Cells were fixed using 4% paraformaldehyde and stained with Fluorescein-labeled Dolichos Biflorus Agglutinin, DAPI, and anti-BAG1, and anti-SAG1. Disks were removed and mounted onto glass slides and visualized using microscopy (Nikon Tl7). Slides were also scanned using a CRi Pannoramic Scan Whole Slide Scanner and viewed using Pannoramic Viewer Software.

Series [12] relates to yeast with a mutation in the Qi site. Conditions: cited from earlier work.
Series [13] is described as follows: Aqueous kinetic solubility PBS pH 7.4.

Structures are written as SMILES. In brackets after ≈: the same amount, converted by molar mass. Entries after “also recorded” stand apart in the source; their conditions may differ. Where two headings read alike, the source gives them in different places.

As usually defined, the EC50 is the concentration needed to bring the measured effect to its halfway point. A higher EC50 goes with weaker potency. Take `C[C@H]1[C@H](OC(=O)CCC(=O)O)O[C@@H]2O[C@@]3(C)CC[C@H]4[C@H](C)CC[C@@H]1[C@@]24OO3` [Artesunate]: the concentration for a half-maximal effect (EC50) in series [1] (DD2, Dd2) was 2.95 ± 0.94 nM; in series [1] (DD2, Dd2-attB), 4.4 ± 2.3 nM; in [1] (DD2, Dd2-scDHODH) it was 3.97 ± 2.3 nM; in series [1] (DD2, Dd2: G33A), 2.53 ± 0.69 nM; in series [1] (DD2, Dd2: G33V) it was 2.08 ± 1.4 nM; in series [1] (DD2, Dd2: G131S), 3.38 ± 0.48 nM.

Take `O=C1C(O)=C([C@H]2CC[C@H](c3ccc(Cl)cc3)CC2)C(=O)c2ccccc21` [Atovaquone, atovaquone]: the EC50 in series [1] (DD2, Dd2) was 0.461 ± 0.14 nM; in series [1] (DD2, Dd2-attB), 1.11 ± 0.27 nM; in [1] (DD2, Dd2-scDHODH), more than 50 nM; in series [1] (DD2, Dd2: G33A), 0.365 ± 0.053 nM; in series [1] (DD2, Dd2: G33V), 3.85 ± 7.1 nM; in [1] (DD2, Dd2: G131S) it was 0.479 ± 0.17 nM. Further, the “interaction in combination with MJM170” value was “Slight synergy; also recorded: modest synergy” in series [2] and “modestly synergistic” in [2] (listed as atovoquone). The “FIC ATV” value is on record as 0.82 ± 0.05 in series [2] (ratio 2:8), 0.72 ± 0.1 in [2] (ratio 4:6), 0.52 ± 0.1 in series [2] (ratio 6:4) and 0.35 ± 0.06 in series [2] (ratio 8:2). In series [3], the “effect on cyst burden in mice” value is “partially, and transiently, limits cyst burden in mice”.

A word on the half-life: it is how long it takes for the measured level to halve. Lower therefore signals rapid decline. By solubility is commonly meant how much of the substance goes into solution per volume. Low values mean a poorly soluble substance, high ones a readily soluble substance. The CC50 is the concentration giving 50% cytotoxicity. Read a high CC50 as better tolerance by the cells. By IC50 is commonly meant the concentration that gives 50% inhibition. Broadly, the solubility (kinetic) is the concentration staying in solution when a stock, usually in DMSO, is diluted into the medium. With `Cc1[nH]c2ccccc2c(=O)c1-c1ccc(Oc2ccc(OC(F)(F)F)cc2)cc1` [ELQ 271], the half-life in series [4] (human, human microsomes) is 2.87 h; in series [10] (mouse, mouse microsomes), more than 3.33 h. Also, the human microsomal stability in [4] (rounded) is 172 min. In addition, the “growth inhibition of wild type yeast” value in [5] is on record as “effective”. This compound yielded a solubility in series [6] of 3.4 µM (≈ 1.4 µg/mL). The compound also gave a CC50 at 72 h in series [7] of 20000 nM. Moreover, the concentration for half-maximal inhibition (IC50) in [8] came to 30 nM; in series [9] (C2B strain, multi-drug resistant, pronounced resistance to atovaquone), 130 nM; in [9] (D6 strain (Sierra Leone), drug sensitive), 30 nM; in series [9] (TM91C235 strain (Thailand), multi-drug resistant) it was 90 nM; in series [9] (W2 strain (Thailand), chloroquine resistant), 100 nM; in series [11] (Toxoplasma gondii, EGS strain cysts in HFF), 1000 nM. The “effect on brain cyst numbers in mice” value in series [3] (mouse model, listed as ELQ271) was “partially reduce cyst numbers in mice”; in series [3] (mouse model; listed as ELQ) 271), “reduce, but not eliminate, brain cyst numbers in mice”. This compound also gave a mouse microsomal stability in [10] of more than 200 min. For the same compound, the “effect on EGS bradyzoites in cysts in vitro” value in [11] is listed as “inhibited EGS in vitro”. In addition, the “effect on EGS cysts in vitro” value in series [11] (10 μM) is reported as “reduce the EGS cysts in vitro”. For the same compound, the “activity against yeast with a mutation in the Qi site” value in series [12] is listed as “ineffective”. This compound also yielded a kinetic solubility in series [13] of 0.15 µM (≈ 0.0617 µg/mL).

On to `CC1(C)N=C(N)N=C(N)N1c1ccc(Cl)cc1` [cycloguanil], for which the “interaction in combination with MJM170” value in series [2] was “additive effect”. Moreover, the “FIC CYG” value in series [2] (ratio 2:8) was 0.036 ± 0.01; in series [2] (ratio 4:6), 0.089 ± 0.03; in series [2] (ratio 6:4), 0.2 ± 0.05; in series [2] (ratio 8:2), 0.41 ± 0.003.
